In data set [1] the test system is neonatal piglet model of HI. The note with it: bolus injection followed by continuous infusion, continued during HI exposure; cited from earlier work.
On the set-up of data set [2]: species or system Sprague-Dawley rats. The note with it: rat, in vivo. The method, then:
Another set of animals were prepared for ELISA study. […] Total proteins were extracted using protein lysis buffer (Invitrogen).
Ex vivo whole brain and spinal cord imaging using live imaging devices (IVIS Spectrum imaging system) was performed to provide an accurate picture of the overall bio-distribution of fluorescent labeling insulin. […] To accurately assess bio-distribution of intranasal insulin, all tissues of interest were analyzed by ELISA.

A further data set deals with neonatal pig model of HI. The note with it: IV, to prevent hyperglycemia during glucose infusion before HI injury; cited from earlier work.

Turning to “regular insulin: regular insulin bolus and infusion to induce moderate hypoglycemia in a neonatal piglet HI model”, the “Brain injury with insulin-induced hypoglycemia” value in data set [1] was “not able to ameliorate brain injury”.

Turning to “Alexa 546-labeled insulin: fluorescent Alexa 546-labeled insulin (Nanocs Inc) used to study distribution in brain after intranasal application”, in data set [2], the “Delivery to the central nervous system (fluorescence imaging)” value is “delivered to the central nervous system at 15 minutes”.

In the case of “regular porcine insulin: IV regular porcine insulin used by LeBlanc et al. in a neonatal pig model of HI”, in the data set with neonatal pig model of HI, the “Outcome of piglets in the insulin group” value was “fared slightly better”.
